Data set [1] deals with T1, Histone-lysine N-methyltransferase EHMT2 (Homo sapiens, UniProt Q96KQ7).
T1 sequence (Q96KQ7 whole entry): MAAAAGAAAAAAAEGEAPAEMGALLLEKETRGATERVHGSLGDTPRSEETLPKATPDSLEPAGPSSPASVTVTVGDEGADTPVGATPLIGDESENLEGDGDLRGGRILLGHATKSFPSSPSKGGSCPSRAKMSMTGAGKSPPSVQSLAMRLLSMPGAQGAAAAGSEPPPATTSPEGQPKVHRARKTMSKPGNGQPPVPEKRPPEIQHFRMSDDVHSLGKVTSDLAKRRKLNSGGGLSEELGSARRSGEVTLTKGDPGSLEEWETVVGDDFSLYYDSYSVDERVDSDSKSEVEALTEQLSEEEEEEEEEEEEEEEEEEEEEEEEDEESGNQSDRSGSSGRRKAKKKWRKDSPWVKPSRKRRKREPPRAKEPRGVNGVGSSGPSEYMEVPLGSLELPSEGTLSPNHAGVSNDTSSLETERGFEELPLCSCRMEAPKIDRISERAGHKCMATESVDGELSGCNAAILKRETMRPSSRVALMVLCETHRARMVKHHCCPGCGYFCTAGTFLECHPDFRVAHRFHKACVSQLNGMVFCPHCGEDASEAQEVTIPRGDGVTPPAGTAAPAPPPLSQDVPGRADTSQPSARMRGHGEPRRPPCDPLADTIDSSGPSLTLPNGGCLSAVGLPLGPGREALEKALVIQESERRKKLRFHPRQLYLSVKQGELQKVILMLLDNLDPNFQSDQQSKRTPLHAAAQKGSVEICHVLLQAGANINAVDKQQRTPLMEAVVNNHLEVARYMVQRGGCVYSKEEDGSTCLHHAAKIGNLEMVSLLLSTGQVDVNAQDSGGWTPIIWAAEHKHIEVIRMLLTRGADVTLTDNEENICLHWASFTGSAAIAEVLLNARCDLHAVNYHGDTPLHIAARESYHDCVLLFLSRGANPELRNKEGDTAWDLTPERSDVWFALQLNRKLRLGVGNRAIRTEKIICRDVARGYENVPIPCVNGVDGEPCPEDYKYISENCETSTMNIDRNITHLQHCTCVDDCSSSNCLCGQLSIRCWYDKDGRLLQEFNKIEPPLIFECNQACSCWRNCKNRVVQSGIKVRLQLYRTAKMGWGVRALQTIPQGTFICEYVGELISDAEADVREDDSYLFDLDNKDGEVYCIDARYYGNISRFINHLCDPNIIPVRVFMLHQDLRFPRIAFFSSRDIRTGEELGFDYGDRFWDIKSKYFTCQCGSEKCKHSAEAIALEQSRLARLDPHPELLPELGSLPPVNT
The data set can be described thus: Inhibition of human G9a using biotinylated-H3K9 peptide as substrate after 1 hr in presence of SAM by TR-FRET assay.

Data set [2] deals with DNA (cytosine-5)-methyltransferase 1 (Homo sapiens, UniProt P26358). The data set can be described thus: Inhibition of human DNMT1 using polydeoxyinosine polydeoxycytosine DNA as substrate after 15 mins in presence of SAM by TR-FRET assay.
Chain of DNA (cytosine-5)-methyltransferase 1 (P26358 whole entry): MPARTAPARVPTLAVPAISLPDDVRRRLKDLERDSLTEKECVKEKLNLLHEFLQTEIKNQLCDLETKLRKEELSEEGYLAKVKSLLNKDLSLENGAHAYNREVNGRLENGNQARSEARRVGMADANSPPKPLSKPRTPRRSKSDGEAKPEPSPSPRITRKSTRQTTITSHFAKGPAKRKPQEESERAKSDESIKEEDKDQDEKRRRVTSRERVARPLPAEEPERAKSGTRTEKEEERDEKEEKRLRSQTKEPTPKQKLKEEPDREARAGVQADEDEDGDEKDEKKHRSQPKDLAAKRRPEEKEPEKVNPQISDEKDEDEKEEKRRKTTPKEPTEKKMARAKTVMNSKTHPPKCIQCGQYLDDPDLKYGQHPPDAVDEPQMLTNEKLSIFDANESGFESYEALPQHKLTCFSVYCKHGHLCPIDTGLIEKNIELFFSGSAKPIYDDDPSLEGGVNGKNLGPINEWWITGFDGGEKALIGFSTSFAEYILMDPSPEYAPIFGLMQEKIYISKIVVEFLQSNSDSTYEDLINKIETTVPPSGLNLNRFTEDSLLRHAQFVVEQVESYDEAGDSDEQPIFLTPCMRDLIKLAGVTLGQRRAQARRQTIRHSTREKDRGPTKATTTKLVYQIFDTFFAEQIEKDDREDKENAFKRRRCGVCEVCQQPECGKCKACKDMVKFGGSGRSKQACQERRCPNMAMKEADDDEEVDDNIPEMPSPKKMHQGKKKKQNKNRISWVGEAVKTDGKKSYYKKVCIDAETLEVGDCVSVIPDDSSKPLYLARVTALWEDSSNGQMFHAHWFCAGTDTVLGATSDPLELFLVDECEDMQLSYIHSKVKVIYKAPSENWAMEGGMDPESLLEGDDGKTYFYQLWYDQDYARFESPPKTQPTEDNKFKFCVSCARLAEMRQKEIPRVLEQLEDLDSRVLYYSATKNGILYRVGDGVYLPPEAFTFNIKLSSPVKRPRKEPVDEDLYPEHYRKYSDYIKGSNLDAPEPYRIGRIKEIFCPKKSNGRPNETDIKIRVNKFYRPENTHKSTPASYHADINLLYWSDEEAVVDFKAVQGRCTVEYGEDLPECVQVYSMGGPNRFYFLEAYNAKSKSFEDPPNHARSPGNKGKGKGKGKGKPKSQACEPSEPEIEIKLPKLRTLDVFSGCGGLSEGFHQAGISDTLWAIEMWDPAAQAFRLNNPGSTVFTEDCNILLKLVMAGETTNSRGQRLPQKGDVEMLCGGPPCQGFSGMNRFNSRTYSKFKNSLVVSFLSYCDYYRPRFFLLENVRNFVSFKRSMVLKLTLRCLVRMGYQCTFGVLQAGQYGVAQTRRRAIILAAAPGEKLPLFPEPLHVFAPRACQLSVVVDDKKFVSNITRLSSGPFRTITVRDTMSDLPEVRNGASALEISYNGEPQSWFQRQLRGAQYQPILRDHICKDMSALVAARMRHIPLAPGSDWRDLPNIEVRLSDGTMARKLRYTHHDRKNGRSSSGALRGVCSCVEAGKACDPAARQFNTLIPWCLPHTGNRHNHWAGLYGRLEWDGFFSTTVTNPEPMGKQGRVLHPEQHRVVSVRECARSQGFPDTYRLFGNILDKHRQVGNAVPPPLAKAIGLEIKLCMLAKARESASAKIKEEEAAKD
The nature of data set [3]: Permeability of the compound at 50 uM after 18 hrs by PAMPA. The format is ADME. The following applies: read-out: permeability.
For another data set, the system named is OCI-Ly10. Description: Growth inhibition of human OCI-LY10 cells after 48 hrs by MTS assay. The format is functional. The following applies: OCI-Ly10, 48 h.
Data set [4] is described as follows: AUC (0 to 24 hrs) in RARG2-/-gammac-/- Balb/c mouse at 5 mg/kg, iv administered as single dose by LC-MS/MS analysis. It is filed as ADME, organism-based. The arrangement: dose 5 mg/kg, time < 24 hr, route intravenous. The following applies: in vivo.
Data set [5] can be described thus: Clearance in RARG2-/-gammac-/- Balb/c mouse at 5 mg/kg, iv administered as single dose by LC-MS/MS analysis. It is filed as ADME, organism-based. The following applies: in vivo.

Molecules are shown by their SMILES.

Consider `COc1cc2c(NC3CCN(C4CC4)CC3)cc(-c3ccc(C)o3)nc2cc1OCCCN1CCCC1`, for which the IC50 in data set [1] worked out at 22 nM; in data set [2] it was 413 nM. In data set [3], the Papp at 18 h, 50 µM was determined as 4.04 ×10⁻⁶ cm/s. Moreover, the GI50 with OCI-Ly10 turned out to be 94 nM. Besides, the AUC(0-t) at 24 h in data set [4] was found to be 8.79 µM·h. In data set [5], this compound had a clearance of 15 mL/min/kg.
